Experiments:
Assay in all cases: relative viability (nuclei count vs DMSO), 5 days (fraction); higher = more cells survive
Ispinesib + AZD7762 = compound: Cc1ccc(C(=O)N(CCCN)[C@@H](c2nc3cc(Cl)ccc3c(=O)n2Cc2ccccc2)C(C)C)cc1 [Ispinesib] + NC(=O)Nc1cc(-c2cccc(F)c2)sc1C(=O)N[C@H]1CCCNC1 [AZD7762] (partner 0.2 µM)
In short: (§1)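 Each reported value is a median over duplicate plates. It expresses relative viability: treated-well nuclei count divided by vehicle-well nuclei count. Lung cancer cell lines in 1536-well plates were dosed by pin tool a day after seeding, alone with one drug or with a fixed anchor-drug dose plus five library-drug doses (not always all listed) in √10 steps, and nuclei were counted after 5 days.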

Ispinesib + Dasatinib = compound: Cc1ccc(C(=O)N(CCCN)[C@@H](c2nc3cc(Cl)ccc3c(=O)n2Cc2ccccc2)C(C)C)cc1 [Ispinesib] + Cc1nc(Nc2ncc(C(=O)Nc3c(C)cccc3Cl)s2)cc(N2CCN(CCO)CC2)n1 [Dasatinib] (partner 0.075 µM)
In short: as §1

Linsitinib + AZD7762 = compound: C[C@]1(O)C[C@@H](c2nc(-c3ccc4ccc(-c5ccccc5)nc4c3)c3c(N)nccn32)C1 [Linsitinib] + NC(=O)Nc1cc(-c2cccc(F)c2)sc1C(=O)N[C@H]1CCCNC1 [AZD7762] (partner 0.2 µM)
In short: as §1

Linsitinib + Foretinib = compound: C[C@]1(O)C[C@@H](c2nc(-c3ccc4ccc(-c5ccccc5)nc4c3)c3c(N)nccn32)C1 [Linsitinib] + COc1cc2c(Oc3ccc(NC(=O)C4(C(=O)Nc5ccc(F)cc5)CC4)cc3F)ccnc2cc1OCCCN1CCOCC1 [Foretinib] (partner 0.25 µM)
In short: as §1

Cell Line | relative viability (Ispinesib + AZD7762; first compound 0.001 µM) | relative viability (Ispinesib + AZD7762; first compound 0.003162 µM) | relative viability (Ispinesib + AZD7762; first compound 0.01 µM) | relative viability (Ispinesib + AZD7762; first compound 0.03162 µM) | relative viability (Ispinesib + AZD7762; first compound 0.1 µM) | relative viability (Ispinesib + Dasatinib; first compound 0.001 µM) | relative viability (Ispinesib + Dasatinib; first compound 0.003162 µM) | relative viability (Ispinesib + Dasatinib; first compound 0.01 µM) | relative viability (Ispinesib + Dasatinib; first compound 0.03162 µM) | relative viability (Ispinesib + Dasatinib; first compound 0.1 µM) | relative viability (Linsitinib + AZD7762; first compound 0.01 µM) | relative viability (Linsitinib + AZD7762; first compound 0.03162 µM) | relative viability (Linsitinib + AZD7762; first compound 0.1 µM) | relative viability (Linsitinib + AZD7762; first compound 0.3162 µM) | relative viability (Linsitinib + AZD7762; first compound 1 µM) | relative viability (Linsitinib + Foretinib; first compound 0.01 µM) | relative viability (Linsitinib + Foretinib; first compound 0.03162 µM) | relative viability (Linsitinib + Foretinib; first compound 0.1 µM) | relative viability (Linsitinib + Foretinib; first compound 0.3162 µM) | relative viability (Linsitinib + Foretinib; first compound 1 µM)
NCI-H522 | 0.782 | 1.01 | 0.913 | 0.845 | 0.316 | 0.723 | 1.11 | 1.05 | 0.634 | 0.401 | 0.771 | 0.958 | 1.09 | 0.654 | 0.612 |  |  |  |  | 
PC-3 [JPC-3] | 0.937 | 0.9 | 0.798 | 0.542 | 0.368 | 1.11 | 1.06 | 1.14 | 0.868 | 0.578 | 0.784 | 0.758 | 0.846 | 0.495 | 0.597 | 1.04 | 1.03 | 1.04 | 0.951 | 0.922
NCI-H1703 | 0.16 | 0.121 | 0.134 | 0.0817 | 0.0822 |  |  |  |  |  | 0.158 | 0.142 | 0.112 |  | 0.12 | 0.356 |  | 0.379 | 0.513 | 0.267
EPLC-272H | 0.226 | 0.253 | 0.21 | 0.16 | 0.0883 | 0.407 | 0.354 | 0.32 | 0.172 | 0.182 | 0.186 | 0.22 | 0.221 |  | 0.334 | 0.72 | 0.693 |  |  | 0.656
NCI-H1792 | 0.73 | 0.742 | 0.828 | 0.119 | 0.157 | 1.25 | 0.777 | 0.776 | 0.9 | 0.325 | 0.74 | 0.684 | 0.539 | 0.326 | 0.277 |  |  |  |  | 
NCI-H2085 | 0.962 | 1.08 | 1.07 | 0.806 | 0.466 | 0.228 | 0.225 | 0.242 | 0.261 | 0.206 | 0.916 | 0.837 | 1.04 | 0.896 | 0.939 | 0.883 | 0.889 | 0.931 | 0.891 | 0.898
LK-2 | 0.358 | 0.552 | 0.306 | 0.154 | 0.185 | 0.227 | 0.331 | 0.299 | 0.26 | 0.199 | 0.295 | 0.482 | 0.245 | 0.179 | 0.154 | 1.27 | 1.24 | 1.21 | 1.08 | 1.22
NCI-H1395 | 0.411 | 0.403 | 0.356 | 0.31 | 0.355 | 0.432 | 0.419 | 0.713 | 0.354 | 0.333 | 0.373 |  | 0.394 | 0.477 | 0.38 | 0.98 | 1.01 | 1 | 0.957 | 0.998
ABC-1 | 0.981 | 1.21 | 0.852 | 0.395 | 0.301 | 0.569 | 0.803 | 0.523 | 0.294 | 0.288 |  |  | 0.765 | 0.861 | 0.602 | 1.23 | 0.924 | 1.05 | 0.747 | 1.76
RERF-LC-KJ | 0.88 | 1.1 | 1.07 | 0.701 | 0.243 | 0.835 | 0.697 | 0.448 | 0.281 | 0.391 | 0.254 | 1.02 | 0.905 | 0.419 | 0.71 | 0.836 | 0.935 | 0.907 | 0.487 | 0.79
LU99A | 0.474 | 0.368 | 0.394 | 0.161 | 0.14 | 0.676 | 0.519 | 0.558 | 0.363 | 0.203 | 0.285 | 0.435 | 0.371 |  | 0.196 | 0.766 | 0.839 | 0.838 | 0.553 | 0.662
NCI-H650 | 1.15 | 1.21 | 1.09 | 0.634 | 0.456 | 0.491 | 0.473 | 0.448 | 0.349 | 0.172 | 1.01 | 0.801 | 0.922 |  | 0.905 | 1.04 | 1.08 | 0.969 | 0.782 | 0.966
NCI-H2347 | 0.558 | 0.856 | 0.745 | 0.701 | 0.636 | 0.285 | 0.209 | 0.289 | 0.284 | 0.282 | 0.645 | 0.736 | 0.792 | 0.747 | 0.669 | 0.838 | 0.874 | 0.741 | 0.892 | 0.967
HARA | 0.501 | 0.345 | 0.365 | 0.308 | 0.227 | 0.26 | 0.258 | 0.301 | 0.293 | 0.0741 | 0.355 | 0.237 | 0.344 |  | 0.179 | 0.91 | 0.938 | 0.758 |  | 0.932
NCI-H2228 |  |  |  |  |  | 0.557 | 0.522 | 0.665 | 0.211 | 0.2 |  |  |  |  |  | 0.86 | 0.845 | 0.735 | 0.746 | 0.619
EKVX | 0.777 |  | 0.767 | 0.464 | 0.303 | 0.601 | 0.59 | 0.429 | 0.605 | 0.439 |  | 0.662 | 0.717 | 0.707 | 0.631 | 0.988 | 0.358 | 0.779 | 0.252 | 0.686
HCC-827 | 0.229 | 0.21 | 0.146 | 0.198 | 0.197 | 0.36 | 0.318 | 0.317 | 0.292 | 0.263 | 0.151 | 0.223 | 0.207 |  | 0.221 | 1.07 | 1.1 | 1.02 |  | 0.966
NCI-H1755 | 0.489 | 0.437 | 0.433 | 0.408 | 0.274 | 0.391 | 0.453 | 0.387 | 0.352 | 0.237 | 0.454 | 0.421 | 0.531 | 0.657 | 0.363 | 0.864 | 0.892 | 0.956 | 0.865 | 0.8
